Assays:
Assay in all cases: Broth dilution antifungal susceptibility testing, MIC
Type in all cases: cell-based
[1] = tested on: Scopulariopsis brevicaulis; details: Scopulariopsis brevicaulis strain DM 2006 1025
Protocol: (§1) Broth Dilution Antifungal Susceptibility Testing
(§2) The sensitivity of relevant fungal strains to the peptides was determined using Clinical Laboratory Standard Institute (CLSI; formerly NCCLS) Approved Standards. Fungal susceptibility was tested using “Reference Method for Broth Dilution Antifungal Susceptibility Testing of Filamentous Fungi; Approved Standard M38-P”, and yeast susceptibility was tested using “Reference Method for Broth Dilution Antifungal Susceptibility Testing of Yeasts; Approved Standard—Second Edition M27-A”.

[2] = tested on: Fusarium spp.; details: Fusarium spp. strain DM 2006 1133
Protocol: as §1, §2

[3] = tested on: Alternaria spp.; details: Alternaria spp. strain DM 2006 1218a
Protocol: as §1, §2

[4] = tested on: Fusarium solani; details: Fusarium solani strain NCPF2877
Protocol: as §1, §2

[5] = tested on: Penicillium spp.; details: Penicillium spp. strain DM 2006 1285b
Protocol: as §1, §2

Row | Substance | MIC [1] | MIC [2] | MIC [3] | MIC [4] | MIC [5]
1 | Poly-L-Arginine (MW 5-15 kDa) [NP121] | 3.9 (μg/ml) | 156 (μg/ml) | 13.2 (μg/ml) | 7.8 (μg/ml) | 15.6 (μg/ml)
2 | Poly-L-Lysine (MW 10-20 kDa) [NP108] | 3.9 (μg/ml) | 125 (μg/ml) | 62.5 (μg/ml) | 256 (μg/ml) | 31.2 (μg/ml)

Reference: patent US9169290B2, “Peptides and their use” (priority 2007, dated 2015)
